Data reported in ChEMBL document CHEMBL1125524, “Adenosine A1 antagonists. 2. Structure-activity relationships on diuretic activities and protective effects against acute renal failure” (J Med Chem, 1992).

Legend:
Rattus norvegicus [1] = test: Serum creatinine concentration measured after intraperitoneal administration of 1 mg/kg of compound to rats(vehicle 2.89+/-0.42); type: functional
Rattus norvegicus [2] = test: Serum creatinine concentration measured after intraperitoneal administration of 1 mg/kg of compound to rats(vehicle 3.91+/-0.37); type: functional
Rattus norvegicus [3] = test: Effect on urinary excretion potassium and sodium after oral administration of 0.4 mg/kg to rats(potassium and sodium excretion in control rat is 0.191+/-0.021); type: functional, Urine
Rattus norvegicus [4] = test: Urea nitrogen concentration measured after intraperitoneal administration of 1 mg/kg of compound to rats(vehicle 128.9+/-9.3); type: functional
Rattus norvegicus [5] = test: Ratio of urinary excretion value (urinary volume) in treated rats to that in control rats, at a peroral dose of 0.4 mg/Kg; type: functional, Urine
Rattus norvegicus [6] = test: Ratio of urinary excretion value (urinary volume) in treated rats to that in control rats, at a peroral dose of 1.6 mg/Kg; type: functional, Urine
Rattus norvegicus [7] = test: Percent inhibition of serum creatinine by the compound given as ratio of Cr value in treated to vehicle treated ones after intraperitoneal administration of 1 mg/kg of compound to rats(vehicle 2.89+/-0.42); type: functional; conditions: ip
Rattus norvegicus [8] = test: Ratio of sodium ion/potassium ion concentration in treated rats to that in control rats, at a peroral dose of 0.4 mg/Kg; type: functional
Rattus norvegicus [9] = test: Ratio of sodium ion/potassium ion concentration in treated rats to that in control rats, at a peroral dose of 1.6 mg/Kg; type: functional
Rattus norvegicus [10] = test: Ratio of urinary excretion value (Na+ concentration) in treated rats to that in control rats, at a peroral dose of 0.4 mg/Kg; type: functional, Urine
Rattus norvegicus [11] = test: Ratio of urinary excretion value (Na+ concentration) in treated rats to that in control rats, at a peroral dose of 1.6 mg/Kg; type: functional, Urine
Rattus norvegicus [12] = test: Ratio of urinary excretion value (Na+ concentration) in treated rats to that in control rats, at a peroral dose of 6.25 mg/Kg; type: functional, Urine
Rattus norvegicus [13] = test: Effect on urinary excretion potassium and sodium after oral administration of 1.6 mg/kg to rats(potassium and sodium excretion in control rat is 0.183+/-0.012); type: functional, Urine
Rattus norvegicus [14] = test: Percent inhibition of serum creatinine by the compound given as ratio of Cr value in treated to vehicle treated ones after intraperitoneal administration of 1 mg/kg of compound to rats(vehicle 3.91+/-0.37); type: functional; conditions: ip
Rattus norvegicus [15] = test: Urea nitrogen concentration measured after intraperitoneal administration of 1 mg/kg of compound to rats(vehicle 107.7+/-15.2); type: functional
Rattus norvegicus [16] = test: Oral diuretic activity was measured after oral administration of 0.4 mg/kg to rats(control volume is 0.99+/-0.07); type: functional, Urine
Rattus norvegicus [17] = test: Oral diuretic activity was measured after oral administration of 1.6 mg/kg to rats(control volume is 0.82+/-0.05); type: functional, Urine
Rattus norvegicus [18] = test: Percent inhibition of Urea nitrogen by the compound given as ratio of UN value in treated to vehicle treated ones after intraperitoneal administration of 1 mg/kg of compound to rats(vehicle 107.7+/-15.2); type: functional; conditions: ip
Rattus norvegicus [19] = test: Percent inhibition of Urea nitrogen by the compound given as ratio of UN value in treated to vehicle treated ones after intraperitoneal administration of 1 mg/kg of compound to rats(vehicle 128.9+/-9.3); type: functional; conditions: ip
Rattus norvegicus [20] = test: Ratio of urinary excretion value (urinary volume) in treated rats to that in control rats, at a peroral dose of 6.25 mg/Kg; type: functional, Urine
Adenosine A2 receptor = Adenosine A2 receptor (Rattus norvegicus, UniProt P29276+P30543)
Rattus norvegicus [21] = test: Serum creatinine concentration measured after intraperitoneal administration of 1 mg/kg of compound to rats(vehicle 4.27+/-0.24); type: functional
Rattus norvegicus [22] = test: Serum creatinine concentration measured after intraperitoneal administration of 0.01 mg/kg of compound to rats(vehicle 4.09+/-0.39); type: functional
Rattus norvegicus [23] = test: Serum creatinine concentration measured after intraperitoneal administration of 0.1 mg/kg of compound to rats(vehicle 5.08+/-0.14); type: functional
Rattus norvegicus [24] = test: Effect on urinary excretion potassium and sodium after oral administration of 0.1 mg/kg to rats(potassium and sodium excretion in control rat is 0.179+/-0.038); type: functional, Urine
Rattus norvegicus [25] = test: Percent inhibition of serum creatinine by the compound given as ratio of Cr value in treated to vehicle treated ones after intraperitoneal administration of 0.01 mg/kg of compound to rats(vehicle 4.09+/-0.39); type: functional; conditions: ip
Rattus norvegicus [26] = test: Ratio of urinary excretion value (urinary volume) in treated rats to that in control rats, at a peroral dose of 0.1 mg/Kg; type: functional, Urine
Rattus norvegicus [27] = test: Urea nitrogen concentration measured after intraperitoneal administration of 1 mg/kg of compound to rats(vehicle 171.5+/-7.7); type: functional
Rattus norvegicus [28] = test: Effect on urinary excretion potassium and sodium after oral administration of 0.01 mg/kg to rats(potassium and sodium excretion in control rat is 0.191+/-0.020); type: functional, Urine
Rattus norvegicus [29] = test: Ratio of sodium ion/potassium ion concentration in treated rats to that in control rats, at a peroral dose of 0.01 mg/Kg; type: functional
Rattus norvegicus [30] = test: Ratio of sodium ion/potassium ion concentration in treated rats to that in control rats, at a peroral dose of 0.1 mg/Kg; type: functional
Rattus norvegicus [31] = test: Ratio of urinary excretion value (Na+ concentration) in treated rats to that in control rats, at a peroral dose of 0.01 mg/Kg; type: functional, Urine
Rattus norvegicus [32] = test: Ratio of urinary excretion value (Na+ concentration) in treated rats to that in control rats, at a peroral dose of 0.1 mg/Kg; type: functional, Urine
Rattus norvegicus [33] = test: Ratio of urinary excretion value (urinary volume) in treated rats to that in control rats, at a peroral dose of 0.01 mg/Kg; type: functional, Urine
Rattus norvegicus [34] = test: Effect on urinary excretion potassium and sodium after oral administration of 1.6 mg/kg to rats(potassium and sodium excretion in control rat is 0.173+/-0.015); type: functional, Urine
Rattus norvegicus [35] = test: Percent inhibition of serum creatinine by the compound given as ratio of Cr value in treated to vehicle treated ones after intraperitoneal administration of 1 mg/kg of compound to rats(vehicle 4.27+/-0.24); type: functional; conditions: ip
Rattus norvegicus [36] = test: Percent inhibition of serum creatinine by the compound given as ratio of Cr value in treated to vehicle treated ones after intraperitoneal administration of 0.1 mg/kg of compound to rats(vehicle 5.08+/-0.14); type: functional; conditions: ip
Rattus norvegicus [37] = test: Oral diuretic activity was measured after oral administration of 1.6 mg/kg to rats(control volume is 0.93+/-0.03); type: functional, Urine
Rattus norvegicus [38] = test: Oral diuretic activity was measured after oral administration of 0.01 mg/kg to rats(control volume is 1.15+/-0.17); type: functional, Urine
Rattus norvegicus [39] = test: Oral diuretic activity was measured after oral administration of 0.1 mg/kg to rats(control volume is 0.75+/-0.12); type: functional, Urine
Rattus norvegicus [40] = test: Urea nitrogen concentration measured after intraperitoneal administration of 0.01 mg/kg of compound to rats(vehicle 143.9+/-12.2); type: functional
Rattus norvegicus [41] = test: Percent inhibition of Urea nitrogen by the compound given as ratio of UN value in treated to vehicle treated ones after intraperitoneal administration of 1 mg/kg of compound to rats(vehicle 171.5+/-7.7); type: functional; conditions: ip
Rattus norvegicus [42] = test: Percent inhibition of Urea nitrogen by the compound given as ratio of UN value in treated to vehicle treated ones after intraperitoneal administration of 0.1 mg/kg of compound to rats(vehicle 165.3+/-4); type: functional; conditions: ip
Rattus norvegicus [43] = test: Percent inhibition of Urea nitrogen by the compound given as ratio of UN value in treated to vehicle treated ones after intraperitoneal administration of 0.01 mg/kg of compound to rats(vehicle 143.9+/-12.2); type: functional; conditions: ip
Rattus norvegicus [44] = test: Urea nitrogen concentration measured after intraperitoneal administration of 0.1 mg/kg of compound to rats(vehicle 165.3+/-4); type: functional
Adenosine receptor A1 = molecular target: T1, Adenosine receptor A1 (Cavia porcellus, UniProt P47745)
T1 sequence (P47745 whole entry): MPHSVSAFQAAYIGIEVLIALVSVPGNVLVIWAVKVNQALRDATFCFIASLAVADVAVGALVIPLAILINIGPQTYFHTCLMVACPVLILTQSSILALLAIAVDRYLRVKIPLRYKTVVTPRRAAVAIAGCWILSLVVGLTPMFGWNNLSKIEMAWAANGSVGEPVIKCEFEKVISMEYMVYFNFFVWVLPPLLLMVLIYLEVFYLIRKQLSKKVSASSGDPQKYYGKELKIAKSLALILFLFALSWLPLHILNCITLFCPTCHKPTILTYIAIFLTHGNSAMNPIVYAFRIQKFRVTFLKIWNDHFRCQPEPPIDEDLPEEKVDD
Description: Binding affinity against adenosine A1 receptor in guinea pig forebrain membranes using N6-[3H]cyclohexyladenosine as radioligand

CCCn1c(=O)c2c(nc(C(C3CC3)C3CC3)n2C)n(CCC)c1=O
Cr (Rattus norvegicus [1]): 1.63 mg/dL | Cr (Rattus norvegicus [2]): 4.49 mg/dL | Na (Rattus norvegicus [3]): 0.174 m equiv 6hr-1 100g-1 | UN (Rattus norvegicus [4]): 136.5 mg/dL | T/C (Rattus norvegicus [5]): 0.97 | T/C (Rattus norvegicus [6]): 1.8 | inhibition in vivo at 1 mg/kg (Rattus norvegicus [7]): 44% | Na+/K+ (Rattus norvegicus [8]): 0.94 | Na+/K+ (Rattus norvegicus [9]): 1.21 | T/C (Rattus norvegicus [10]): 0.91 | T/C (Rattus norvegicus [11]): 1.48 | T/C (Rattus norvegicus [12]): 2.14 | Na (Rattus norvegicus [13]): 0.271 m equiv 6hr-1 100g-1 | inhibition in vivo at 1 mg/kg (Rattus norvegicus [14]): -15% | UN (Rattus norvegicus [15]): 54.1 mg/dL | Urine volume (Rattus norvegicus [16]): 0.96 ml 6hr-1 100g-1 | Urine volume (Rattus norvegicus [17]): 1.48 ml 6hr-1 100g-1 | inhibition in vivo at 1 mg/kg (Rattus norvegicus [18]): 50% | inhibition in vivo at 1 mg/kg (Rattus norvegicus [19]): 6% | T/C (Rattus norvegicus [20]): 1.78 | Ki (Adenosine A2 receptor): 29000 nM

CC(C)Cn1c(=O)n(C)c(=O)c2[nH]c(C3CCCC3)nc21
Cr (Rattus norvegicus [21]): 2.54 mg/dL | Cr (Rattus norvegicus [22]): 3.08 mg/dL | Cr (Rattus norvegicus [23]): 2.79 mg/dL | Na (Rattus norvegicus [24]): 0.308 m equiv 6hr-1 100g-1 | inhibition in vivo at 0.01 mg/kg (Rattus norvegicus [25]): 25% | T/C (Rattus norvegicus [26]): 2.12 | T/C (Rattus norvegicus [6]): 2.12 | UN (Rattus norvegicus [27]): 109.5 mg/dL | Na (Rattus norvegicus [28]): 0.257 m equiv 6hr-1 100g-1 | Na+/K+ (Rattus norvegicus [29]): 1.22 | Na+/K+ (Rattus norvegicus [30]): 1.55 | Na+/K+ (Rattus norvegicus [9]): 1.57 | T/C (Rattus norvegicus [31]): 1.35 | T/C (Rattus norvegicus [32]): 1.72 | T/C (Rattus norvegicus [11]): 2.19 | T/C (Rattus norvegicus [33]): 1.14 | Na (Rattus norvegicus [34]): 0.379 m equiv 6hr-1 100g-1 | inhibition in vivo at 1 mg/kg (Rattus norvegicus [35]): 40% | inhibition in vivo at 0.1 mg/kg (Rattus norvegicus [36]): 45% | Urine volume (Rattus norvegicus [37]): 1.97 ml 6hr-1 100g-1 | Urine volume (Rattus norvegicus [38]): 1.31 ml 6hr-1 100g-1 | Urine volume (Rattus norvegicus [39]): 1.59 ml 6hr-1 100g-1 | UN (Rattus norvegicus [40]): 106.4 mg/dL | inhibition in vivo at 1 mg/kg (Rattus norvegicus [41]): 36% | inhibition in vivo at 0.1 mg/kg (Rattus norvegicus [42]): 35% | inhibition in vivo at 0.01 mg/kg (Rattus norvegicus [43]): 26% | UN (Rattus norvegicus [44]): 107.3 mg/dL | Ki (Adenosine receptor A1): 33 nM | Ki (Adenosine A2 receptor): 880 nM
